Results from patent publication US20250031689A1, “CRYOPRESERVATION COMPOSITIONS AND METHODS” (priority 2023, published 2025).

Columns and labels:
mouse oocytes = conditions: 2M proline, in the presence of DMSO and ethylene glycol; cited from earlier work
RBCs = conditions: 1.5M proline, only in the presence of trehalose; cited from earlier work
[1] = tested on: Cygnus monkey spermatozoa; conditions: at 5-10 mM; cited from earlier work
HCT 115 cells = test: Freeze-thaw cryoprotection of HCT 115 cells, crystal violet stain density (cell yield); type: cell-based; conditions: glutamate in OptiMEM, 96 hours growth after thaw
Method: FIG. 3. Cryoprotectant activity of glutamate requires concentrations greater than 50 mM. The dose response relationship of glutamate and its ability to impart cryoprotective activity to OptiMeM prompted the question of our findings being extensible to other cell types such as HCT 115 cells (FIG. 2). Cells were prepared as described above in OptiMEM medium containing either no additions, 7.5% DMSO, 50 mM glutamate, 150 mM glutamate, 250 mM glutamate, or 350 mM glutamate. Thawed cells were plated, washed at 24 hours to remove debris, and allowed to grow for a total of 96 hours, at which time they were fixed with 10% formol (15 minutes). Fixed cultures were stained with 0.2% crystal violet for 2 hours, destained in 4 changes of distilled water, dried and scanned on an Epson scanner at 1200 dpi (panel A). The density of stain from each culture, corresponding to cell yield, was quantified using ImageJ (NIH). The density of each culture was plotted in a bar graph and is shown in panel B. The stained 6-well plate containing each culture is shown in panel A, with insets showing a photograph from representative cultures visualized with a 4× objective after staining. The order of the samples in the plate shown in panel A is (left to right, top to bottom): media alone, media+7.5% DMSO, media+50 mM glutamate, media+150 mM glutamate, media+250 mM glutamate, media+350 mM glutamate. […]

[2] = tested on: ovine pre-adipocyte cells; test: Freeze-thaw cryoprotection of cells suspended in saline, cell yield by ImageJ (FIG. 4); type: cell-based
HEK293 cells = test: Freeze-thaw (-80° C.) cryoprotection of HEK293 cells, post-thaw attachment/viability; type: cell-based
Method: For the studies detailed below, the following procedures were used for preparation of cell cultures prior to cryopreservation: Both HEK-293 and HCT-115 cells were cultured in DMEM medium supplemented with 10% calf serum or 10% fetal calf serum. Two or three days prior to initiating a cryopreservation study, cells were seeded onto 100 mm tissue culture treated dishes in the above described culture medium and placed into a humidified, 5% CO2 incubator and allowed to propagate for 2 or 3 days. Preparation of growing cultures for cryostorage was performed as follows: Medium from 100 mm dishes containing growing cultures prepared as described above was aspirated and replaced with saline containing 0.5 mM EDTA and allowed to incubate for 2-3 minutes. This material was also aspirated and replaced with saline containing 0.25% trypsin and 0.25 mM EDTA. After incubating this second mixture for an additional 3-5 minutes and observing partial detachment of cells from dishes, cells were removed by using inertial force against the dish or by using a stream of saline or base culture medium to dislodge and collect cells from the dish. Cells harvested in this manner were separated by centrifugation (100 g×3 min), resuspended in the desired cryostorage solution, dispensed into polypropylene vials, positioned in microtube racks that were placed into a −80° C. freezer. Cells were kept frozen for 24-168 hours, at which time cryovials were removed to wet ice and cells thawed and plated into appropriate tissue culture vessels, typically 6 or 12 well plates. Cells were visualized with the aid of a Nikon TE300 microscope with an attached camera to allow documentation.
As described above, we wished to test the ability of amino acid species to serve as primary cryoprotectants per the definition provided, i.e. at concentrations at which they provided osmotic pressure sufficient to induce cell dehydration. For this purpose we prepared solutions of several amino acids, including alanine, glycine, proline, glutamate, histidine, aspartate, leucine, lysine, phenylalanine, threonine, arginine, and serine. These were standardized to 1M and adjusted to pH 7.1-pH 7.3, where possible or to maximal concentrations when 1M was above the solubility such as histidine and leucine. These solutions were used by dilution in water to test for their ability to serve as a cryoprotectant or diluted to the desired target concentration in a variety of base media including saline, and the two growth mediums described above (DMEM and OptiMeM) in the studies with three different mammalian cell lines described below described below.
FIG. 1. […] To test this capacity against a well-established cryoprotectant from those described above, HEK293 cultures were prepared as above in one of three base cryostorage mediums as noted below each pair of photographs depicted in panel A: (a) OptiMEM culture medium (ThermoFisher), a serum free growth medium, (b) DMEM culture medium containing 10% serum, or (c) 0.3M glutamate pH 7.2. One sample was prepared in each storage medium as described (labels on the bottom of each vertical pair of photographs), and an additional sample for each was prepared with 7.5% DMSO. 23 hours after plating thawed cells, cultures were visualized with 4× (upper) and 20× objectives (lower). […] The images were also analyzed using NIH Image to count cell numbers, depicted in panel B.
FIG. 2. […] HEK293 cells were prepared as described above in OptiMEM medium and apportioned into 4 samples containing 0 mM, 100 mM, 200 mM, or 300 mM glutamate (labels below photograph). After completing a freeze-thaw cycle, each sample was plated and visualized 23 hours after plating.

cells = conditions: NaCl at concentrations where glutamate acts as a CPA
Method: We developed a workflow that tested cryoprotection of cells suspended in physiological saline (150 mM NaCl), overcoming the need to resuspend centrifuged cells directly in a final cryoprotection buffer. […] Thus, in these studies, trypsinized cells were centrifuged as described above, but resuspended in saline prior to diluting into a test solution. The photographs in FIG. 4A depict representative fields at 4× magnification of 6-well plates seeded with ovine pre-adipocyte cells, frozen in solutions comprised of agents and concentrations indicated to the left of each row. The cells in each field were enumerated by using ImageJ (NIH) to carryout noise reduction and thresholding before enumerating cell particles (FIG. 4B). It should be noted that dilution of the initial saline sample contributed 0.105 M NaCl concentration in addition to the agents indicated to the left. To provide a positive sample, we also tested DMSO at three concentrations (1%, 3%, and 10%). […] Therefore, we also tested binary mixtures as well as a ternary and a quaternary mixture.
We ascertained if such synergy might also exist with other well established cryoprotectants such as betaine or trehalose. […]

## O=C(O)[C@@H]1CCCN1 [proline]
Mouse oocytes
  increase in implantation rate: 6-10%
RBCs
  hemolysis of frozen cells: able to reduce hemolysis
[1]
  increase in post-thaw recovery above that obtained with the control: approximately 20%

## NCC(=O)O [glycine]
[1]
  increase in post-thaw recovery above that obtained with the control: approximately 20%

## N[C@@H](CCC(=O)O)C(=O)O [glutamate]
HCT 115 cells
  concentration required for cryoprotectant activity: greater than 50 mM
[2]; glutamate as a sole agent, comparable to 3% and 10% DMSO
  cryoprotection as measured by cell yield: significant cryoprotection
HEK293 cells; 100 mM glutamate in OptiMEM
  post-thaw viability 23 hours after plating: some extended post-thaw viability
HEK293 cells; 200 mM and 300 mM glutamate in OptiMEM
  post-thaw viability and attachment 23 hours after plating: increased viability
HEK293 cells; 0.3M glutamate in OptiMEM
  entry into the growth cycle compared to cells in medium alone: improved entry into the growth cycle
HEK293 cells; 0.3M glutamate pH 7.2 as sole cryoprotectant
  attachment of cells at 23 hours after plating thawed cells: attachment at least to the level of either medium containing DMSO
HEK293 cells; HEK293 cells, compared among several amino acids
  post-thaw viability in initial survey of amino acids: highest degree of post-thaw viability

## NC(=O)CC[C@H](N)C(=O)O [glutamine]
[1]
  increase in post-thaw recovery above that obtained with the control: approximately 20%

## [Cl-].[Na+] [NaCl]
cells
  cryoprotection by increased ionic strength: does not provide any significant cryoprotection

## C[S+](C)[O-] [DMSO, Dimethylsulfoxide]
[2]; DMSO at 1%, saline, -80° C.
  cryoprotection as measured by cell yield: cryoprotective activity was apparent
[2]; DMSO at 3% and 10%, saline, -80° C.
  cryoprotection as measured by cell yield: capable cryoprotective agent
HEK293 cells; 7.5% DMSO in OptiMEM or DMEM containing 10% serum
  attachment of cells at 23 hours after plating thawed cells: do attach
